molecular target: T1, Axl (Homo sapiens, UniProt P30530); assay: Cellular Axl inhibition ELISA (p-Axl, Gas6-induced) using H1299 cells; format: cell-based; set-up: especially H1299 cell endogenously expresses Axl; endogenous in cells; host or cells: H1299; conditions: read-out: Cellular Axl activity by H1299 Elisa (IC50)
T1 sequence (P30530 26-894): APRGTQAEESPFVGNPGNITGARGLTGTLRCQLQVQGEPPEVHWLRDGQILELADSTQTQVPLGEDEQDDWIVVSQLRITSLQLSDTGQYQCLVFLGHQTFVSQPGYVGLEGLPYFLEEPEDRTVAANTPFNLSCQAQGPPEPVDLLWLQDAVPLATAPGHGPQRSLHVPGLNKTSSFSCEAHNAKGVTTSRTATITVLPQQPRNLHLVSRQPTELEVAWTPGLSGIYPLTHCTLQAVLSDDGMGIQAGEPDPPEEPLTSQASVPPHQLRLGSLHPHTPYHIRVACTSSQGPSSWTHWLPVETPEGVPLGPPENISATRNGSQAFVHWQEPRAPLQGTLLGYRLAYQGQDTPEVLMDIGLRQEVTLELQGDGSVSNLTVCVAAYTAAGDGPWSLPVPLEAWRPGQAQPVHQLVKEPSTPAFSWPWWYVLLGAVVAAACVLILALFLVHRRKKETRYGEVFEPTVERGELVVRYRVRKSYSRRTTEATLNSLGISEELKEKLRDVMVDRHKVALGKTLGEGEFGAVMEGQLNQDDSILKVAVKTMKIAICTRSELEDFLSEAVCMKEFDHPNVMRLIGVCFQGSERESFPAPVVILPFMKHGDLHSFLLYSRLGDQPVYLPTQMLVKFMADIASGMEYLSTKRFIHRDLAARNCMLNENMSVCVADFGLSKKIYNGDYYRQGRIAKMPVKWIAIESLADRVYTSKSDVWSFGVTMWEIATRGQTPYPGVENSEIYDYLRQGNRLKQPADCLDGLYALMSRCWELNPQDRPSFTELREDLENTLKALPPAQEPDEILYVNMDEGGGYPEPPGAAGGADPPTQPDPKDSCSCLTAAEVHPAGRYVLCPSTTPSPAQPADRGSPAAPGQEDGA
Procedure: Axl is expressed in several of malignant cancer cells; especially H1299 cell endogenously expresses Axl; and an increased phosphorylation of Axl (p-Axl) can be observed, when induced by the Axl ligand, Ga6.
The H1299 cells should be 40-80% confluent in the cell culture flask. Then cells are washed with DPBS and trypsinized. After centrifugation, the cell pellet is re-suspended with pre-warmed culture medium (RPMI1640, 10% FBS) and cells are separated by pipetting 6 times up and down with a 10 ml serological pipette. The cell suspension was diluted to a final concentration of 1.25×10^5 cells/ml. Then 80 μl/well cell suspension is added to the plate. Cell-plates are incubated at 37° C./5% CO2 overnight. Compounds were dissolved by DMSO to 10 mM, and kept in nitrogen cabinet. Prepare the compounds stock plate, the reference compounds concentration starts at 0.50 mM (5 μl+95 μl DMSO), and the tested compounds start at 1.5 mM (6 μl+34 μl DMSO); Then make a 3-fold dilution series (10 doses) compounds. Then dilute compounds by the medium in the mid plate (2 μl compounds+198 μl medium). Transfer 20 μl diluted compounds from mid plate to the cell coated plate. Cell-plates are incubated at 37° C./5% CO2 for 24 h. Add 25 μl of Human Gas6 (1000 ng/ml) to 96-well plate; the final concentration of Human Gas6 is 200 ng/ml. Incubate the plates at 37° C./5% CO2 for 1 h. Remove medium and wash cells once with 300 ul/well ice-cold 1×PBS. Then remove PBS and add 100 μl/well ice-cold 1× Cell Lysis Buffer to 96-well plate. The plate is shaken for 40 min at 4° C. Then plates can be stored at −20° C. After the micro-wells strips have reached room temperature, break off the required number of micro-wells. Place the micro-wells in the strip holder. Unused micro-wells must be resealed and stored at 4° C. immediately. Add 60 μl of cell lysate to the appropriate well. Seal with tape and press firmly onto top of micro-wells. Incubate the plate at 37° C. for 2 h. Gently remove the tape and wash wells 5 times with 1× Wash Buffer, 300 μl each time for each well. Add 100 μl of reconstituted Detection Antibody (green color) to each well. Seal with tape and incubate the plate at 37° C. for 1 h. Repeat wash procedure. Add 100 μl of reconstituted HRP Linked secondary antibody to each well. Seal with tape and incubate the plate at 37° C. for 30 min. Repeat wash procedure. Add 100 μl of TMB Substrate to each well. Seal with tape and incubate the plate at 37° C. for 15 min. Add 100 μl of STOP Solution to each well. Shake gently for a few seconds. Read absorbance at 450 nm within 30 min after adding STOP Solution. Calculations and Formulas: The following calculations and formulas are used for data analysis using XL Fit software: The curve fitting was made using the Sigmoidal Dose-Response Model (Fit model, 205).

SMILES	IC50
COc1cc2nccc(Oc3ccc(NC(=O)c4nn(CCOC5CC5)cc4OCC(F)(F)F)c(F)c3)c2cc1OC [Compound 115]	< 500 nM
COc1cc2nccc(Oc3ccc(NC(=O)c4nn(CCOC5CC5)cc4OCC(F)(F)F)cc3F)c2cc1OC [Compound 116]	< 500 nM
COc1cc2nccc(Oc3ccc(NC(=O)c4nn(CCOC5CC5)cc4OCC(F)(F)F)cc3C)c2cc1OC [Compound 117]	500 to 1000 nM
COc1cc2nccc(Oc3ccc(NC(=O)c4nn(CCOC5CC5)cc4OCC(F)(F)F)cc3)c2cc1OC [Compound 118]	< 500 nM
CNCCn1cc(OCC(F)(F)F)c(C(=O)Nc2ccc(Oc3ccnc4cc(OC)c(OC)cc34)cc2)n1 [Compound 119]	≥ 1000 nM
COc1cc2nccc(Oc3ccc(NC(=O)c4nn(CCOC5CC5)cc4OCC(F)(F)F)nn3)c2cc1OC [Compound 120]	500 to 1000 nM
COc1cc2nccc(Oc3ccc(NC(=O)c4nn(C5CCCC5)cc4OCC(F)(F)F)nn3)c2cc1OC [Compound 121]	< 500 nM
COc1cc2nccc(Oc3ccc(NC(=O)c4nn(C5CCNC5)cc4OCC(F)(F)F)nn3)c2cc1OC (stereo not drawn) [Compound 122]	≥ 1000 nM
COc1cc2nccc(Oc3ccc(NC(=O)c4nn(CC5COC5)cc4OCC(F)(F)F)nn3)c2cc1OC [Compound 123]	< 500 nM
COc1cc2nccc(Oc3ccc(NC(=O)c4nn(CC(C)C)cc4OCC(F)(F)F)nn3)c2cc1OC [Compound 124]	< 500 nM
COc1cc2nccc(Oc3ccc(NC(=O)c4nn(CCN)cc4OCC(F)(F)F)nn3)c2cc1OC [Compound 125]	≥ 1000 nM
COCCn1cc(OCC(F)(F)F)c(C(=O)Nc2ccc(Oc3ccnc4cc(OC)c(OC)cc34)nn2)n1 [Compound 126]	< 500 nM
CNCCn1cc(OCC(F)(F)F)c(C(=O)Nc2ccc(Oc3ccnc4cc(OC)c(OC)cc34)nn2)n1 [Compound 127]	≥ 1000 nM
COc1cc2nccc(Oc3ccc(NC(=O)c4nn(C5CCOC5)cc4OCC(F)(F)F)nn3)c2cc1OC (stereo not drawn) [Compound 128]	< 500 nM
COc1cc2nccc(Oc3ccc(NC(=O)c4nn(CCO)cc4OCC(F)(F)F)cn3)c2cc1OC [Compound 129]	≥ 1000 nM
COc1cc2nccc(Oc3ccc(NC(=O)c4nn(CCOC5CC5)cc4OCC(F)(F)F)cn3)c2cc1OC [Compound 130]	≥ 1000 nM

SMILES	IC50
COc1cc2nccc(Oc3ccc(NC(=O)c4nn(C5CCCC5)cc4OCC(F)(F)F)cn3)c2cc1OC [Compound 131]	< 500 nM
COc1cc2nccc(Oc3ccc(NC(=O)c4nn(C5CCNC5)cc4OCC(F)(F)F)cn3)c2cc1OC (stereo not drawn) [Compound 132]	≥ 1000 nM
COc1cc2nccc(Oc3ccc(NC(=O)c4nn(C5CCN(C)C5)cc4OCC(F)(F)F)cn3)c2cc1OC (stereo not drawn) [Compound 133]	≥ 1000 nM
COc1cc2nccc(Oc3ccc(NC(=O)c4nn(CC5COC5)cc4OCC(F)(F)F)cn3)c2cc1OC [Compound 134]	< 500 nM
COc1cc2nccc(Oc3ccc(NC(=O)c4nn(CCN)cc4OCC(F)(F)F)cn3)c2cc1OC [Compound 135]	≥ 1000 nM
COc1cc2nccc(Oc3ccc(NC(=O)c4nn(CC(C)O)cc4OCC(F)(F)F)cn3)c2cc1OC (stereo not drawn) [Compound 136]	≥ 1000 nM
CNCCn1cc(OCC(F)(F)F)c(C(=O)Nc2ccc(Oc3ccnc4cc(OC)c(OC)cc34)nc2)n1 [Compound 137]	≥ 1000 nM
COc1cc2nccc(Oc3ccc(NC(=O)c4nn(C5CCOC5)cc4OCC(F)(F)F)cn3)c2cc1OC (stereo not drawn) [Compound 138]	< 500 nM
CCCn1cc(OCC(F)(F)F)c(C(=O)Nc2ccc(Oc3ccnc4cc(OC)c(OC)cc34)nc2)n1 [Compound 139]	< 500 nM
CCCn1cc(OCCNC)c(C(=O)Nc2ccc(Oc3ccnc4cc(OC)c(OC)cc34)cn2)n1 [Compound 140]	≥ 1000 nM
CNCCOc1cn(C2CC2)nc1C(=O)Nc1ccc(Oc2ccnc3cc(OC)c(OC)cc23)cn1 [Compound 141]	≥ 1000 nM
COc1cc2nccc(Oc3ccc(NC(=O)c4nn(C5CC5)cc4NCCC(F)(F)F)nc3)c2cc1OC [Compound 142]	< 500 nM
COc1cc2nccc(Oc3ccc(NC(=O)c4nn(C5CC5)cc4OCC4COC4)nc3)c2cc1OC [Compound 143]	< 500 nM
COc1cc2nccc(Oc3ccc(NC(=O)c4nn(C5CC5)cc4OCC4CNC4)nc3)c2cc1OC [Compound 144]	≥ 1000 nM
COc1cc2nccc(Oc3ccc(NC(=O)c4nn(C5CC5)cc4NCC(F)(F)F)nc3)c2cc1OC [Compound 145]	< 500 nM

Now from value to compound:

IC50	SMILES
< 500 nM	COc1cc2nccc(Oc3ccc(NC(=O)c4nn(C5CC5)cc4NCCC(F)(F)F)nn3)c2cc1OC [Compound 146]
< 500 nM	COc1cc2nccc(Oc3ccc(NC(=O)c4nn(C5CC5)cc4OC(C)C)nn3)c2cc1OC [Compound 147]
< 500 nM	COc1cc2nccc(Oc3ccc(NC(=O)c4nn(C5CC5)cc4NCC(F)(F)F)nn3)c2cc1OC [Compound 148]
< 500 nM	COc1cc2nccc(Oc3ccc(NC(=O)c4nn(C5CC5)cc4OCC4CCC4)nn3)c2cc1OC [Compound 149]
< 500 nM	COCCOc1cn(CC(C)O)nc1C(=O)Nc1ccc(Oc2ccnc3cc(OC)c(OC)cc23)cn1 (stereo not drawn) [Compound 150]
< 500 nM	COc1cc2nccc(Oc3ccc(NC(=O)c4nn(CC(C)O)cc4OC(C)C)nc3)c2cc1OC (stereo not drawn) [Compound 151]
500 to 1000 nM	COc1cc2nccc(Oc3ccc(NC(=O)c4nn(CC(C)O)cc4OCCF)nc3)c2cc1OC (stereo not drawn) [Compound 152]
< 500 nM	COc1cc2nccc(Oc3ccc(NC(=O)c4nn(CCOC5CC5)cc4OCC(F)(F)F)nc3)c2cc1OC [Compound 153]
500 to 1000 nM	CNCCn1cc(OCC(F)(F)F)c(C(=O)Nc2ccc(Oc3ccnc4cc(OC)c(OC)cc34)cc2F)n1 [Compound 154]
< 500 nM	CNCCn1cc(OCC(F)(F)F)c(C(=O)Nc2ccc(Oc3ccnc4cc(OC)c(OC)cc34)c(F)c2)n1 [Compound 155]
≥ 1000 nM	CNCCn1cc(OCC(F)(F)F)c(C(=O)Nc2ccc(Oc3ccnc4cc(OC)c(OC)cc34)c(C)c2)n1 [Compound 156]
≥ 1000 nM	COc1cc2nccc(Oc3ccc(NC(=O)c4nn(C5CCN(C)C5)cc4OCC(F)(F)F)nn3)c2cc1OC (stereo not drawn) [Compound 157]
< 500 nM	CCCn1cc(NCCC(F)(F)F)c(C(=O)Nc2ccc(Oc3ccnc4cc(OC)c(OC)cc34)cn2)n1 [Compound 158]
≥ 1000 nM	CCCn1cc(OCC2CNC2)c(C(=O)Nc2ccc(Oc3ccnc4cc(OC)c(OC)cc34)cn2)n1 [Compound 159]
≥ 1000 nM	CNCCOc1cn(C2CC2)nc1C(=O)Nc1ccc(Oc2ccnc3cc(OC)c(OC)cc23)nn1 [Compound 160]
< 500 nM	COc1cc2nccc(Oc3ccc(NC(=O)c4nn(C5CC5)cc4OCC4COC4)nn3)c2cc1OC [Compound 161]
< 500 nM	COc1cc2nccc(Oc3ccc(NC(=O)c4nn(C5CC5)cc4OCC(F)F)nn3)c2cc1OC [Compound 162]
